This note sets out measurements from patent US20260226470A1, “HEPATITIS B COMBINATION THERAPIES” (Aligos Therapeutics, Inc., priority 2023, published 2026).

Oligonucleotides are written 5' to 3', each unit as a sugar letter and its base; * is a phosphorothioate linkage, no mark a phosphodiester; rarer units and linkages stand in square brackets, end groups in braces. Plain capitals give the bases only. m = 2'-O-methyl; f = 2'-fluoro

One data set deals with HBV. Description: siRNA treatment followed by CAM add-on, in vivo in mice, Example 3. To be noted: FIGS. 13A-13B, 16A-16B; CAM 30 mpk BID day 63-98; siRNA-2 10 mpk SC QW day 0-98. As for the experimental part: In the following example, initial treatment with an siRNA, followed by CAM add-on, was tested in vivo in mice.
The study design is described below in Table 9.
QW dosing of siRNA-2 was continued until the end of the study (day 98). HBV DNA, HBsAg, and HBeAg were measured weekly through day 98.

Data set [1] concerns adeno-associated virus-hepatitis B virus (AAV-HBV) mice. The data set is described as follows: In vivo compound efficacy in AAV-HBV mice, Example 1 (Compound 1 and siRNA-1). On the set-up: species or system Mouse: C57BL/6. To be noted: plasma, follow-up to Day 189. Here is the method:
In vivo compound efficacy was evaluated in adeno-associated virus-hepatitis B virus (AAV-H-BV) mice. Materials and methods are presented below in tables 1-4. Table F describes the nucleic acid sequences used for siRNA-1, an siRNA. The sequences are described using modified nucleotide annotations found in Table B.
Live Phase Parameters: Based on plasma viral markers levels and body weight, 20 mice were selected and randomized into five groups for treatment. Checks were made for dead and/or moribund animals daily. Overt changes were recorded. Body weight was measured twice weekly during Day 0-97, and once weekly during Day 98-189.
Vehicle (Group 01) and Compound 1 at 55 mg/kg/dose (Groups 02, 04 and 05) were administered by oral gavage twice daily during Day 0-97. siRNA-1 at 5 mg/kg/dose was injected subcutaneously on Days 0, 14, 42 and 70 for Groups 03 and 04, and on Days 70, 84, and 102 for Group 05.
Plasma samples of 50 μL per mouse were prepared once weekly prior to dosing during Day 0-189. The samples were used for quantitative detections of HBsAg, HBeAg, and HBV DNA. Mice were sacrificed on Day 189.

As to `C=C[C@H](C)Nc1nc2c(c(=O)n1-c1ccc(C(=O)NC)cc1)C[C@@H](C)N(C(=O)c1ccc(Br)c(C(F)(F)F)c1)C2` [Compound 2, 4-((R)-7-(4-bromo-3-(trifluoromethyl)benzoyl)-2-(((S)-but-3-en-2-yl)amino)-6-methyl-4-oxo-5,6,7,8-tetrahydropyrido[3,4-d]pyrimidin-3(4H)-yl)-N-methylbenzamide], the “reduction of HBV DNA” value in the data set on HBV was “good reduction of HBV DNA”.

As for “siRNA-1: siRNA with SEQ ID NO: 2 (Sense) and SEQ ID NO: 3 (Antisense), modified nucleotides per Table B (sense mC*mC*mGmUfGmUfGfCfAmCmUmUmCmGmCmUmUmCmA; antisense mU*fG*mAmAfGmCmGfAmAmGmUmGmCfAmCmAfCmGmG*mU*mC)”, the “HBsAg effect after end of treatment (sustained or rebound)” value in data set [1] (FIGS. 3A-3B) is “rebound is observed”. In addition, the “HBeAg effect after end of treatment (sustained or rebound)” value in data set [1] (FIGS. 4A-4B) is “rebound is observed”.
